Measured values from patent US5563176A (priority 1994, dated 1996).
Like-named read-outs stand apart in the source and are kept apart here.

How the values were obtained:
242, melanoma = experiment: inhibition of thymidine incorporation after two hour exposure, 242; type: cell-based; details: 2 h; Table 1; 242, two hour exposure
Experimental: (§1) To assess cytotoxic effects, various concentrations of illudins were added to cultures of cells for 48 hours, then cell growth/viability was determined by trypan blue exclusion. As an alternative to 48 hour continuous exposure studies, cells were plated in liquid culture in 96 well plates, exposed to various concentrations of illudins for 2 hours, pulsed with [^3 H]-thymidine for one to two hours and harvested onto glass filters. The filter papers were added to vials containing scintillation fluid and residual radioactivity determined in a beta (scintillation) counter.
(§2) two hour exposure to the toxins (N - 3).

CFU-GM = experiment: colony formation zone size, CFU-GM; details: CFU-GM
[1] = tested on: MDA-231 3-1 (gp170+) cells; experiment: sensitivity of mdr lines, MDA-231 3-1; type: cell-based; details: Homo sapiens, MDA-MB-231
SL-2, murine (thymic) = experiment: inhibition of thymidine incorporation after two hour exposure, SL-2; type: cell-based; details: Mus musculus, 2 h; Table 1; SL-2, two hour exposure
Experimental: as §1, §2

C1498 cells = experiment: C1498 syngeneic mouse AML model, increased life span; type: in vivo
Experimental: In collaboration, the in vivo effects of dehydroilludin M was again studied. Initially the compound was studied against L1210 cells. […] The dehydroilludin M was then administered as a 24 hour infusion (5.0 mg/kg); the ILS was 11%. After we became aware of the presence of the energy-dependent uptake in human myelocytic cells, dehydroilludin M was screened for in vivo […], produced an ILS of 35%.

[2] = tested on: MCF7-wt parent (Breast) cells; experiment: sensitivity of mdr lines, MCF7-wt parent; type: cell-based; details: Homo sapiens
[3] = tested on: CEM Dox (gp170+) variant cells; experiment: sensitivity of mdr lines, CEM Dox; type: cell-based
L1210 = experiment: zone of inhibition / colony formation, L1210
L1210 BCNU cells = experiment: sensitivity of mdr lines, L1210 BCNU; type: cell-based; details: Mus musculus
[4] = tested on: MDA-231 parent (Breast) cells; experiment: sensitivity of mdr lines, MDA-231 parent; type: cell-based; details: Homo sapiens, MDA-MB-231
KB C-1 (gp170+) cells = experiment: sensitivity of mdr lines, KB C-1; type: cell-based; details: KBC-1
HL60 cells = experiment: cells; type: cell-based; details: Homo sapiens, HL-60, 48 h, read-out: 48 hour IC50
MV522 cells = experiment: cells; type: cell-based, human; details: Homo sapiens, MV522, 2 h, read-out: Two hour IC50
CEM parent cells = experiment: sensitivity of mdr lines, CEM parent; type: cell-based
HL60 cells (myeloid) = experiment: cells; type: cell-based, human; details: Homo sapiens, HL-60, 2 h
CEM VM-1 variant cells = experiment: sensitivity of mdr lines, CEM VM-1; type: cell-based; details: Homo sapiens, CEM-VM1
547, ovarian = experiment: inhibition of thymidine incorporation after two hour exposure, 547; type: cell-based; details: 2 h; Table 1; 547, two hour exposure
Experimental: as §1, §2

L1210 parent cells = experiment: sensitivity of mdr lines, L1210 parent; type: cell-based; details: Mus musculus
Colon 38 = experiment: zone of inhibition, Colon 38
[5] = tested on: Molt-4 (human T-cell leukemia) xenograft; experiment: Molt-4 xenograft in athymic Balb/c nu/nu mice; type: in vivo; details: Molt-4, athymic mice; FIG. 4
MCF-7, breast = experiment: cells; type: cell-based, human
[6] = tested on: L1210 PAM (melphalan) cells; experiment: sensitivity of mdr lines, L1210 PAM; type: cell-based; details: Mus musculus
[7] = tested on: human lung adenocarcinoma MV522; details: in vivo
[8] = tested on: L1210 CPA (cyclophos) cells; experiment: sensitivity of mdr lines, L1210 CPA; type: cell-based; details: Mus musculus
[9] = tested on: MCF7 ADR (GSH-transferase) cells; experiment: cells; type: cell-based; details: Homo sapiens
8392 cells = experiment: cells; type: cell-based; details: 48 h, read-out: 48 hour IC50
HL-60 cells = experiment: cells; type: cell-based, human; details: Homo sapiens, HL-60
CEM AraC variant cells = experiment: sensitivity of mdr lines, CEM AraC; type: cell-based
HL-60 parent cells = experiment: sensitivity of mdr lines, HL-60 parent; type: cell-based; details: Homo sapiens
8402, T-cell = experiment: inhibition of thymidine incorporation after two hour exposure, 8402; type: cell-based; details: 2 h, Table 1, 8402, two hour exposure
Experimental: as §1, §2

HL-60 ADR (gp150+) cells = experiment: sensitivity of mdr lines, HL-60 ADR; type: cell-based; details: Homo sapiens, HL60/ADR
KB parent cells = experiment: sensitivity of mdr lines, KB parent; type: cell-based
8392 cells (B-cell) = experiment: cells; type: cell-based; details: 2 h
MV522 = experiment: cells; type: cell-based; details: Homo sapiens, MV522, 48 h, read-out: 48 hour IC50
KB VBL (gp170+) cells = experiment: sensitivity of mdr lines, KB VBL; type: cell-based
[10] = tested on: CEM VLB100 (gp170+) variant cells; experiment: sensitivity of mdr lines, CEM VLB100; type: cell-based
MDA-231, breast = experiment: cells; type: cell-based
[11] = tested on: L1210 DDPt (cis-plat) cells; experiment: sensitivity of mdr lines, L1210 DDPt; type: cell-based; details: Mus musculus
[12] = tested on: human lung adenocarcinoma MV522; experiment: animal or person; details: MV522, ip, read-out: life span
Go = experiment: zone of inhibition, Go

CC1=C2C(=C[C@@](C)(CO)C2O)C(=O)[C@](C)(O)C12CC2 (stereo partly shown) [Illudin S]
IC50 (242, melanoma): 607 ± 70 nM | Zone Size (CFU-GM; dilution 1/1,000): 400 | Zone Size (CFU-GM; dilution 1/4,000): 200 | Zone Size (CFU-GM; dilution 1/16,000): 0 | Zone Size (CFU-GM; dilution 1/64,000): 0 | IC50 [1]: 0.89 ± 0.38 nM | IC50 (SL-2, murine (thymic)): 142 ± 15 nM | ILS (C1498 cells; 2.5 mg/kg IP once a day for 5 days): 44% | ILS (C1498 cells; single bolus, 2.5 mg/kg IP): 35% | IC50 ([2]; MCF7-wt Parent, read-out: Sensitivity of mdr lines): 0.88 ± 0.11 nM | IC50 ([2]; MCF7-wt, read-out: parent IC50): 0.88 nM | IC50 [3]: 14 nM | Zone of Inhibition (L1210; L1210, 0.63 ug/disc): 320 | Zone of Inhibition (L1210; L1210, 1.25 ug/disc): 400 | Zone of Inhibition (L1210; L1210, 2.50 ug/disc): 500 | Zone Size (L1210; L1210, dilution 1/1,000): 850 | Zone Size (L1210; L1210, dilution 1/4,000): 600 | Zone Size (L1210; L1210, dilution 1/16,000): 550 | Zone Size (L1210; L1210, dilution 1/64,000): 300 | IC50 (L1210 BCNU cells): 0.58 ± 0.08 nM | IC50 [4]: 0.85 ± 0.23 nM | IC50 (KB C-1 (gp170+) cells): 0.69 ± 0.15 nM | IC50 (HL60 cells): 10 ± 1 nM | IC50 (MV522 cells): 19 ± 6 nM | IC50 (CEM parent cells): 8.3 ± 2.6 nM | IC50 (HL60 cells (myeloid)): 7 ± 1 nM | IC50 (HL60 cells (myeloid); read-out: Two hour IC50): 10 ± 1 nM | IC50 (CEM VM-1 variant cells): 16.2 ± 6.4 nM | IC50 (547, ovarian): 607 ± 110 nM | IC50 (L1210 parent cells): 0.42 ± 0.08 nM | Zone of Inhibition (Colon 38; Colon 38, 0.63 ug/disc): 0 | Zone of Inhibition (Colon 38; Colon 38, 1.25 ug/disc): 0 | Zone of Inhibition (Colon 38; Colon 38, 2.50 ug/disc): 30 | tumor growth [5]: tumor growth delay | sensitivity to illudin S (MCF-7, breast): markedly sensitive | IC50 (MCF-7, breast; Homo sapiens, MCF7, 2 h): 58 ± 5 nM | IC50 [6]: 0.62 ± 0.15 nM | life span versus control [7]: no significant increase in the life span | IC50 [8]: 0.46 ± 0.12 nM | IC50 ([9]; NCI/ADR-RES, read-out: Sensitivity of mdr lines): 3.7 ± 0.4 nM | IC50 ([9]; read-out: daughter line IC50): 3.7 nM | IC50 (8392 cells): 8 ± 2 nM | IC50 (HL-60 cells): 10 nM | IC50 (CEM AraC variant cells): 14 nM | IC50 (HL-60 parent cells): 3.1 ± 1.1 nM | IC50 (8402, T-cell): 669 ± 196 nM | IC50 (HL-60 ADR (gp150+) cells): 1.9 ± 0.8 nM | IC50 (KB parent cells): 0.58 ± 0.12 nM | IC50 (8392 cells (B-cell)): 236 ± 31 nM | IC50 (8392 cells (B-cell); read-out: Two hour IC50): 236 ± 2 nM | IC50 (MV522): 4 ± 1 nM | IC50 (KB VBL (gp170+) cells): 0.69 ± 0.11 nM | IC50 [10]: 3.7 ± 0.7 nM | sensitivity to illudin S (MDA-231, breast): markedly sensitive | IC50 (MDA-231, breast; Homo sapiens, MDA-MB-231, 2 h): 2 ± 0.2 nM | IC50 [11]: 0.46 ± 0.12 nM | response vs control in vivo at 0.25 mg/kg [12]: 104 ± 20% | response vs control in vivo at 2.5 mg/kg [12]: < 26% | Zone of Inhibition (Go; 0.63 ug/disc): 3 | Zone of Inhibition (Go; 1.25 ug/disc): 70 | Zone of Inhibition (Go; 2.50 ug/disc): 240
